Reference: patent EP4792813A1, “USE OF […] PREPARATION OF DRUG FOR PREVENTING AND TREATING SEPSIS AND SEPSIS-INDUCED ORGAN DAMAGE” (Lunan Pharmaceutical Group Corporation, priority 2023, dated 2025)

Key:
Type in all cases: in vivo, C57BL/6J mice
[1] = system: mice with LPS-induced sepsis; assay: Serum inflammatory factors (ELISA) in mice with LPS-induced sepsis; settings: for IL-6 / TNF-α: serum, 24 h after LPS, x±s, n = 6; for serum inflammatory factor indices: result in words, compared with the model group
Description: (§1) After 1 week of acclimatization, mice were randomly divided into 8 groups: normal group, model group, positive control group, control group 1, control group 2, and compound I low-, medium- and high-dose groups, with 20 mice in each group. […] After the experiment was started, the normal group and model group were intraperitoneally injected with normal saline according to the body weight. The positive control group was intraperitoneally injected with 1 mg/kg dexamethasone. The Compound I low-, medium- and high-dose groups were intraperitoneally injected with 1 mg/kg, 2.5 mg/kg and 5 mg/kg compound I according to the body weight, respectively. The control group 1 was intraperitoneally injected with 5 mg/kg control compound 1 according to the body weight, and the control group 2 was intraperitoneally injected with 5 mg/kg control compound 2 according to the body weight. After 1 h, the normal group was intraperitoneally injected with normal saline according to the body weight, and the model group and each administration group were injected with 20 mg/kg LPS and then dissected 24 h later.
The blood samples were allowed to stand at room temperature for 1 h, followed by centrifugation at 3000 r/min to obtain serum. The serum was divided into two aliquots. One aliquot was processed in accordance with the instructions of TNF-α and IL-1β ELISA kits. Each well was measured at 450 nm using a microplate reader. The OD value of each sample was determined by subtracting the absorbance of the blank control well from the measured value. A standard curve was plotted based on the concentrations and OD values of standard samples to calculate the concentrations of the samples.

[2] = system: mice with LPS-induced sepsis; assay: Serum biochemical parameters (ALT, AST, UREA, CREA-S) in mice with LPS-induced sepsis; set-up: CREA-S: unit not given here; settings: for ALT / AST / CREA-S / UREA: serum, 24 h after LPS, x±s, n = 7; for serum ALT, AST, UREA and CREA-S levels: result in words, compared with the model group
Description: as §1
A series of operations were performed on the serum in accordance with the instructions of the kits to detect ALT, AST, UREA and CREA-S concentrations.

[3] = system: mice with LPS-induced sepsis; assay: HE staining of kidney tissue sections in mice with LPS-induced sepsis; settings: 24 h after intraperitoneal injection of 20 mg/kg LPS, compared with the model group, FIG. 1
Description: as §1
Mouse kidney tissue sections were stained using a hematoxylin-eosin (HE) staining method. First, the baked sections were dewaxed using xylene until the sections became transparent. The dewaxed sections were rinsed with ethanol to remove xylene and then rinsed with distilled water. […]

[4] = system: mice with LPS-induced sepsis; assay: 48 h survival rate of mice with LPS-induced sepsis; settings: within 48 h after 20 mg/kg LPS; result in words; FIG. 2
Description: as §1
4.4 After 48 h, the survival rate of the remaining 10 mice in each group was observed.

[5] = system: mice with LPS-induced sepsis-associated encephalopathy; assay: Nissl staining of hippocampus in mice with LPS-induced sepsis-associated encephalopathy; settings: 1, 2.5 and 5 mg/kg i.p. 1 h before 25 mg/kg LPS; 24 h; compared with the model group
Description: (§2) After 1 week of acclimatization, 60 male C57BL/6J mice were randomly divided into five groups: normal group, model group, Compound I low-dose group, Compound I medium-dose group and Compound I high-dose group, with 12 mice per group.
(§3) After the experiment was started, the normal group and model group were intraperitoneally injected with normal saline according to the body weight. The Compound I low-, medium- and high-dose groups were intraperitoneally injected with 1 mg/kg, 2.5 mg/kg and 5 mg/kg Compound I according to the body weight, respectively. After 1 h, the normal group was intraperitoneally injected with a corresponding volume of normal saline according to the body weight of the mice, while the model group and each administration group were injected with 25 mg/kg LPS. The administration volume was 10 mL/kg. After 24 h, the mice were anesthetized with pentobarbital sodium. The skull was opened and the brain was harvested, rinsed with normal saline, blotted dry with filter paper, and weighed. The brain index was calculated based on the following formula: Brain index = brain weight/body weight × 100% [formula]
The prepared sections were dried and dewaxed, and then stained with a Nissl staining solution for 90 min. […]

[6] = system: mice with LPS-induced sepsis-associated encephalopathy; assay: Brain index in mice with LPS-induced sepsis-associated encephalopathy; settings: 1, 2.5 and 5 mg/kg i.p. 1 h before 25 mg/kg LPS; 24 h; compared with the model group (p<0.01)
Description: as §2, §3

[7] = system: mice with LPS-induced sepsis-associated encephalopathy; assay: Eight-arm maze test in mice with LPS-induced sepsis-associated encephalopathy; settings: compared with the model group
Description: After 1 week of acclimatization, 60 male C57BL/6J mice were randomly divided into five groups: normal group, model group, compound I low-dose group, Compound I medium-dose group and Compound I high-dose group, with 12 mice in each group.
After the experiment was started, the normal group and model group were intraperitoneally injected with normal saline according to the body weight. The Compound I low-, medium- and high-dose groups were intraperitoneally injected with 1 mg/kg, 2.5 mg/kg and 5 mg/kg compound I, respectively. After 1 h, the normal group was intraperitoneally injected with a corresponding volume of normal saline according to the body weight of the mice, while the model group and each administration group were injected with 10 mg/kg LPS, with an administration volume of 10 mL/kg.
Behavioral tests were performed in an automated eight-arm maze. Before the experiment was started, all the mice were required to undergo acclimatization training. The food intake of the mice was restricted daily to facilitate the rapid finding and memorization of food pellets placed in the 1st, 2nd, 4th and 7th arms during the test. On day 1, an equal amount of food pellets was placed in each arm. The mice were placed in the maze and then allowed to explore freely for 300 s before acclimatization was terminated. Starting from day 2, the automatic doors were first closed, and the mice were placed in the center of the maze for 15 s. The automatic doors were then opened to release the mice for testing. The training was terminated when the time reached 300 s or the mice found the food pellets. The training was conducted for a total of five days. Working memory errors were defined as repeated entries by the mice into arms where food pellets had already been found and consumed. Reference memory errors were defined as entries into arms without food pellets. The total number of arm entries was recorded as the total arm entries. The time required for the mice to find all food pellets was defined as the test duration. On the day 7 of the experiment, a formal trial was initiated, and this step unchanged. The frequencies of working memory errors and reference memory errors were calculated based on the recorded working memory errors, reference memory errors and total arm entries.

[8] = system: mice with LPS-induced sepsis-associated encephalopathy; assay: Novel object recognition test in mice with LPS-induced sepsis-associated encephalopathy; settings: 1, 2.5 and 5 mg/kg i.p. on days 1-3, 7.5 mg/kg LPS on days 1 and 2; compared with the model group; FIG. 6
Description: as §2
On day 1 of the experiment, the normal group and model group were intraperitoneally injected with normal saline according to the body weight. The Compound I low-, medium- and high-dose groups were intraperitoneally injected with 1 mg/kg, 2.5 mg/kg and 5 mg/kg Compound I according to the body weight, respectively. After 1 h, the normal group was intraperitoneally injected with a corresponding volume of normal saline according to the body weight of the mice, while the model group and each administration group were injected with 7.5 mg/kg LPS. The administration volume was 10 mL/kg.
On day 2 of the experiment, the operations on day 1 were repeated. […]
The mice were individually placed in a square arena (40 × 40 × 40 cm) and allowed to move freely for 10 min. […] The time and frequency of mice contacting the objects or exploring within 2 cm of the objects (forepaws on the object, nose sniffing, or licking the object) were recorded. The preference index (PI) and discrimination index were calculated. […]

[9] = 1 mg/kg i.p. 1 h before 20 mg/kg LPS
[10] = 2.5 mg/kg i.p. 1 h before 20 mg/kg LPS
[11] = 5 mg/kg i.p. 1 h before 20 mg/kg LPS
[12] = 1, 2.5 and 5 mg/kg i.p. 1 h before 10 mg/kg LPS, best effect in medium-dose group, FIG. 5

Structure (SMILES) | IL-6 [1, 9] [pg] | TNF-α [1, 9] [pg] | IL-6 [1, 11] [pg] | TNF-α [1, 11] [pg] | ALT [2, 9] [U/L] | AST [2, 9] [U/L] | UREA [2, 9] [mmol/L] | ALT [2, 11] [U/L] | AST [2, 11] [U/L] | CREA-S [2, 11] | UREA [2, 11] [mmol/L] | serum inflammatory factor indices [1, 11] | serum ALT, AST, UREA and CREA-S levels [2, 11] | further results
Cn1c(C(=O)N2CCC(C(=O)Nc3cccc(Cl)c3)CC2)cc2ccccc21 [Compound I, N-(3-chlorophenyl)-1-(1-methyl-1H-indole-2-carbonyl)piperidine-4-carboxamide] | 20.10 ± 3.28 | 127.00 ± 16.42 | 17.04 ± 2.94 | 14.00 ± 2.29 | 69.44 ± 16.93 | 183.40 ± 37.18 | 35.56 ± 8.88 | 59.61 ± 6.89 | 137.50 ± 26.26 | 20.80 ± 7.59 | 22.69 ± 10.33 |  |  | IL-6 [1, 10]: 17.60 ± 3.20 pg; TNF-α [1, 10]: 76.30 ± 6.77 pg; CREA-S [2, 9]: 21.07 ± 5.89; ALT [2, 10]: 67.83 ± 19.01 U/L; AST [2, 10]: 180.20 ± 54.87 U/L; CREA-S [2, 10]: 18.64 ± 6.72; UREA [2, 10]: 26.02 ± 9.03 mmol/L; changes of renal tubules (abnormal dilation of renal tubules, atrophy of epithelial cells and lightening of cytoplasm), HE staining [3]: significantly ameliorated; survival rate [4]: significantly improve the survival rate; Nissl staining of the hippocampus region of the mouse brain tissue [5]: reduced neuronal pyknosis, recovered cell morphology and normal Nissl bodies; brain index [6]: significantly reduced; frequency of reference memory errors [7, 12]: decreased; frequency of working memory errors [7, 12]: decreased; test duration ([7]; medium- and high-dose groups (2.5 and 5 mg/kg i.p.), 10 mg/kg LPS): decreased; total numbers of arm entries ([7]; medium- and high-dose groups (2.5 and 5 mg/kg i.p.), 10 mg/kg LPS, most significant reduction in medium-dose group): decreased; discrimination index [8]: increased; preference index [8]: increased
O=C(Nc1cccc(Cl)c1)C1CCN(C(=O)c2ccc3ccccc3c2)CC1 [Control group 1] |  |  | 24.72 ± 4.03 | 244.20 ± 10.95 |  |  |  | 78.19 ± 10.95 | 271.1 ± 25.31 |  | 46.47 ± 4.58 | no significant improvements | no significant improvements | 
O=C(c1cccc(O)c1)N1CCC(c2nc3cc(Cl)ccc3o2)CC1 [Control group 2] |  |  | 24.56 ± 3.56 | 238.20 ± 9.79 |  |  |  | 77.76 ± 12.51 | 265.20±31.82 | 43.99 ± 5.81 | 47.22 ± 3.39 | no significant improvements | no significant improvements | 
C[C@@H]1C[C@H]2[C@@H]3CCC4=CC(=O)C=C[C@]4(C)[C@@]3(F)[C@@H](O)C[C@]2(C)[C@@]1(O)C(=O)CO [Positive control group, dexamethasone] | 16.49 ± 1.38 | 79.27 ± 4.86 |  |  | 58.94 ± 7.12 | 142.8 ± 21.78 | 20.69 ± 5.68 |  |  |  |  |  |  | 
